What was measured:
[1] = test system: human pancreatic cancer cell line (PANC1); experiment: Imaging of mice subcutaneously transplanted with human pancreatic cancer cell line PANC1; format: in vivo, human (PANC1) in Balb/c-nu/nu mice; conditions: 2 hours after administration, 0.5 MBq/0.2 mL per mouse, tail vein
Text: Immunodeficient mice (Balb/c-nu/nu, 5-week-old, male) were habituated for 1 week and then subcutaneously transplanted with a human pancreatic cancer cell line (PANC1, 1×10^7 cells/mouse). After the transplantation, the mice were observed over time until tumor reached a size large enough for imaging (about 1000 mm^3). […] Two hours after administration, the mice were anesthetized by isoflurane inhalation, and planar images were taken using a γ camera (E-cam, Siemens).

[2] = Measurement of accumulated amounts of 211At-labeled compounds in PANC1 tumor-bearing mice; format: in vivo, human (PANC1) in Balb/c-nu/nu mice; conditions: tumor, iv, 0.1 MBq/animal, 0.1 MBq/0.2 mL per mouse, tail vein, read-out: tumor accumulation
Procedure: Radiation doses before and after the administration were measured, and a difference between them was defined as an injected dose (ID). Ten minutes and one hour after administration, the mice were anesthetized by isoflurane inhalation, the tumors were isolated by autopsy in chronological order, and their radiation doses and weights were measured using a gamma counter (2480 Wizard^2, PerkinElmer) and a semimicro scale (Shimadzu Corporation, readability 10 μg), respectively. For comparison between accumulated amounts, accumulated amounts per unit amount (% ID/g) were calculated.
In Table 1, the amounts of the ^211At-labeled compounds accumulated in tumors of the PANC1 tumor-bearing models (% ID/g) are shown. It should be noted that in Table 1, “OMe” is ^211At-AAMT-OMe, “OEt” is ^211At-AAMT-OEt, “OPr” is ^211At-AAMT-OPr, and “OH” is ^211At-AAMT.

[3] = test system: CDDP-resistant A549 (A549 CDDP-r); conditions: 48 hours, 37 °C, Cell counting kit-8
Procedure: Two days before experiment, A549 and CDDP-resistant A549 (A549 CDDP-r) were each seeded in a 96-well plate at a concentration of 1×10^5 cells/mL. ^211At-AAMT-OMe or ^211At-AAMT adjusted to a predetermined concentration was added to A549 cells and CDDP-resistant A549 cells, respectively, and the cells were cultured (CO2 5%, 37 °C). After the cultivation for 48 hours, Cell counting kit-8 (DOJINDO LABORATORIES) was added. After the addition, the cells were cultured at 37 °C for 1 hour, and cell viability was measured using absorbance at 450 nm as an indicator.

[4] = background art; cited from earlier work

For `C[C@](N)(Cc1ccc(O)c([At])c1)C(=O)O` [^211At-AAMT, astato(^211At)-α-methyl-L-tyrosine, reference compound], the “accumulation in tumor site (planar γ camera image)” value [1] was “accumulated in the tumor sites”, the tissue uptake at 10 min ([2]; 10 minutes after administration) was 0.29 %ID/g and the tissue uptake at 1 h ([2]; 1 hour after administration) was 2.49 %ID/g. For the same compound, the cytotoxicity [3] was “has cytotoxicity against CDDP-resistant A549 (A549 CDDP-r)” and the clearance [4] was “fast clearance”.
